This is an account of results in patent publication US8680094B2, “1, 4-benzoxazine compounds and derivatives thereof as therapeutic drugs for the treatment of neurodegenerative conditions” (Board of Regents, The University of Texas System, priority 2008, dated 2014).

One experiment concerns HT-22 cells. Nature of the experiment: HCA-induced toxicity in HT-22 neuroblastoma cells. The class given is cell-based, mouse. As for the experimental part:
FIGS. 6A and 6B show the effects of HSB-13 on HT-22 cells and the quantification of cell death. […] HT-22 cells were treated with no additives (Un), 1.5 mM HCA, or 1.5 mM HCA plus 25 μM HSB-13, 25 μM ASK-2a, and 25 μM HSB-22. In FIG. 6A, the appearance of the cultures at 24 h after treatment was visualized by phase-contrast microscopy (Phase). […] Viability was expressed as % of untreated cultures (control);
HT-22 cells were treated with no additives (Control), 2 mM HCA, or 2 mM HCA+25 μM HSB-13. The appearance of the cultures at 24 h after treatment is shown.
The mouse HT-22 neuroblastoma cell line was purchased from ATCC (Manassas, Va., USA) and cultured in Dulbecco's modified Eagle's medium (DMEM) with 4.5 g/L glucose (without sodium pyruvate) supplemented with 10% FBS, 100 units/ml penicillin and 100 μg/ml streptomycin. Cultures were plated at ˜30% confluence for HCA treatment. HCA was made as 150 mM stock solution adjusted to pH 7.5 and used at a final concentration of 1.5 mM.
Treatment of the mouse neuroblastoma HT-22 cell line with homocysteic acid (HCA) induces apoptosis through glutathione depletion and oxidative stress (Murphy et al. 1990; Ratan et al. 1994a, 1994b). The inventors studied whether HSB-13, HSB-22, and ASK-2a were protective in this paradigm of oxidative stress-induced neuronal death. HSB-13 prevents HCA-induced cell death. […] Thus, HSB-13, but not ASK-2a and HSB-22, is protective against oxidative stress-induced neuronal death.
Analysis in cultured cerebellar granule neurons identified HSB-13 as one with strong neuroprotective efficacy. We therefore selected HSB-13 to examine whether its protective effects extended to other neuronal types and apoptotic stimuli. Treatment of the hippocampally-derived neuroblastoma cell line, HT-22, with homocysteic acid (HCA) causes oxidative stress due to glutathione depletion leading to apoptosis (Murphy et al., 1990; Ratan et al., 1994a and 1994b).

Experiment [1] concerns cerebellar granule neurons. The experiment can be described thus: LK-induced death of cultured cerebellar granule neurons, viability by DAPI staining. The class given is cell-based, rat. Particulars: for protection against LK-induced neuronal death (FIG. 1): 25 μM, phase contrast microscopy, DAPI-staining, TUNEL-staining; for neuroprotection against LK-induced neuronal death, in words: overall over 1, 5 and 25 μM. As for the experimental part:
Culturing and treatments of cerebellar granule neurons: Granule neuron cultures were obtained from dissociated cerebella of 6-7 day old Wistar rats as described previously (D'Mello et al., 1993). Cells were plated in Basal Eagle's Medium (BME) supplemented with 10% fetal calf serum (FCS), 25 mM KCl, 2 mM glutamine (Invitrogen), and 100 μg/ml gentamycin in poly-L-lysine coated 24-well dishes at a density 1×10^6 cells/well. Cytosine arabinofuranoside (10 μM) was added to the culture medium 18-22 h after plating to prevent replication of nonneuronal cells. Previous immunocytochemical analyses by our lab and other investigators have shown that these cultures have high purity containing over 95% granule neurons (Thangnipon et al., 2003; Kingsbury et al., 2005).
The neuronal cultures were maintained for 7-8 days prior to treatment. For treatment, the cells were rinsed once and then maintained in low K+ medium (serum-free BME medium; referred to as LK), or in the case of control cultures, in high K+ medium (serum-free BME medium supplemented with 20 mM KCl; referred to as HK). For treatments, the chemical compounds (dissolved in dimethylsulfoxide) were added directly to LK medium at the time of the switch from HK at concentrations of 1, 5, or 25 μM. Viability was assessed 24 hours by 4′,6′-diamidino-2-phenylindole hydrochloride (DAPI) staining (see below). Each compound was tested in duplicate (at each of the concentrations) and the experiment repeated at least 3 times.
The viability status of neuronal cultures treated with HK, LK, or LK medium supplemented with various compounds was evaluated by phase contrast microscopy and quantified by staining cell nuclei with DAPI as previously described (Yalcin et al., 2003; Morrison et al., 2006; Majzadeh et al., 2007)). Briefly, the cells were fixed in 4% paraformaldehyde for 20 min at 4° C. After washing in phosphate buffered saline, diamidino-2-phenylindole hydrochloride (DAPI; 1 μg/ml in phosphate buffered saline) was added for 15 min at room-temperature and viewed under ultraviolet light (260 nm). Cells with condensed or fragmented nuclei were scored as dead. Viability has been expressed as percent of control cultures, which were switched to HK medium). Statistical analysis was performed using an unpaired, two-tailed Student's T test, compared to mean neuronal survival of control cultures receiving LK treatment.
When cultured cerebellar granule neurons are switched from HK to LK medium about 50% of the cells underwent apoptosis within 24 h (D'Mello et al., 1993). The inventors utilized this widely used and recognized model to test a total of 20 different 1,4-benzoxazine derivatives for their ability to protect against LK-induced neuronal death. Each compound was tested at 3 different doses—1 μM, 5 μM and 25 μM and viability quantified by DAPI-staining. The highest does was included to test for possible toxicity effects of the compounds. Key results were confirmed using TUNEL staining, another reliable assay of apoptosis (FIG. 1). As shown in Table 1 and FIG. 1, the present invention identifies several compounds with significant neuroprotective effect. Two of the most protective compounds are HSB-13 and HSB-22, both with Ar=3′,5′-dibromo-4′-hydroxyphenyl (FIG. 1). […] Protection with this compound is lower than that observed with HSB-13 and HSB-22 at the two lower doses. […] To examine whether a higher level of protection could be observed at doses lower than 1 μM, the analyses of these compounds was extended to doses of 0.5, 0.25, and 0.1 μM.
When cultured cerebellar granule neurons are switched to LK medium, about 50% of the cells undergo apoptosis within 24 h. In this study, a total of 20 different 1,4-benzoxazine derivatives of the structure shown in FIG. 1 were tested for their ability to protect against LK-induced death of cerebellar granule neurons. Each compound was tested at 3 different doses —1 μM, 5 μM and 25 μM. […]

The mark [2] stands for this setting: any of the three doses examined (data not shown).
The mark [3] stands for this setting: Table 1, 5 μM in LK medium, 24 h, % of survival in control cultures in HK medium, LK alone 48%.
Where [4] appears, read: Table 1, 25 μM in LK medium, 24 h, % of survival in control cultures in HK medium, LK alone 48%.
The mark [5] stands for this setting: Table 4, 1 μM in LK medium, % of survival in HK control cultures, LK alone 48.16±8.44%.
[6] abbreviates: Table 4, 5 μM in LK medium, % of survival in HK control cultures, LK alone 48.16±8.44%.
The mark [7] stands for this setting: Table 4, 25 μM in LK medium, % of survival in HK control cultures, LK alone 48.16±8.44%.

The structures appear in SMILES notation. Where “and” joins values, the source holds several entries; their conditions need not be identical. Identical values can stand only once. Entries after “also recorded” stand apart in the source; their conditions may differ.

In the case of `O=C1Nc2ccccc2OC1=Cc1cc(Br)c(O)c(Br)c1` [ASK-2a], in the experiment on HT-22 cells (setting [2]), the “protection against HCA-induced cell death” value is “failed to protect”. Also, the “protection against LK-induced neuronal death (FIG. 1)” value (shortened to “protection … (FIG. 1)”) in experiment [1] (24 h) was “protective”. The “% Survival” value in experiment [1] (Table 1, 1 μM in LK medium, 24 h, % of survival in control cultures in HK medium, LK alone 48%) was determined as 74.01 ± 6.93%; in experiment [1] (setting [3]), 80.84 ± 9.31 %; in experiment [1] (setting [4]), 95.12 ± 3.28 %. Moreover, in experiment [1], the “neuroprotection against LK-induced neuronal death, in words” value (shortened to “neuroprotection”) was “much higher neuroprotection than ASK2; also recorded: high level of neuroprotection; also recorded: effective in all the three concentrations”.
Regarding `Nc1ccc2c(c1)NC(=O)/C(=C/c1cc(Br)c(O)c(Br)c1)O2` [HSB-13, (Z)-6-amino-2-(3,′5′-dibromo-4′-hydrozybenzylidene)-2H-benzo[b][1,4]oxazin-3(4H)-one], the “protection against HCA-induced cell death” value in the experiment with HT-22 cells (1.5 mM HCA, 5 μM compound, 24 h) is given as “robust protection”; in the experiment on HT-22 cells (1.5 mM HCA, 25 μM compound, 24 h), “highest protection”; in the experiment with HT-22 cells (2 mM HCA, 5 uM compound) it was “not protective”. The HCA-induced cell death entry with HT-22 cells (2 mM HCA, 25 uM compound, 24 h (FIG. 9)) is listed as “prevented”. Besides, the “protection … (FIG. 1)” value in experiment [1] (24 h) was “protective”. Further, the “% Survival” value in experiment [1] (setting [3]) is 100.2 ± 2.25 %; in experiment [1] (setting [4]) it was 95.1 ± 5.06 %; in experiment [1] (setting [5]), 83.1 ± 4.53 %; in experiment [1] (setting [6]), 100.8% and 100.8 ± 0.07 %; in experiment [1] (setting [7]) it was 99.5% and 99.5 ± 1.56 %. Also, the “neuroprotection” value in experiment [1] is recorded as “highest neuroprotection; also recorded: effective in all the three concentrations”.
For `O=C1Nc2cc(Cl)ccc2O/C1=C\c1cc(Br)c(O)c(Br)c1` [HSB-22], the “protection against HCA-induced cell death” value with HT-22 cells (setting [2]) is listed as “failed to protect”. In addition, the “protection … (FIG. 1)” value in experiment [1] (24 h) is recorded as “protective”. Also, the “% Survival” value in experiment [1] (setting [3]) was 87.54 ± 8.83 %; in experiment [1] (setting [4]), 91.24 ± 9.03 %; in experiment [1] (setting [5]), 92% and 91.9 ± 1.98 %; in experiment [1] (setting [6]), 97% and 96.7 ± 2.96 %; in experiment [1] (setting [7]) it was 90.6% and 90.6 ± 0.84 %. Moreover, in experiment [1], the “neuroprotection” value is reported as “effective in all the three concentrations”.
